Measurements from US11174242B2, “Heteroaryl compounds and their use” (Minoryx Therapeutics S.L., priority 2016, dated 2021).

Target: T1, β-glucocerebrosidase, p.L444P mutation (GM08760A fibroblasts) (Homo sapiens, UniProt P04062, L483P)
T1 construct: host or cells: human Gaucher patient fibroblasts GM08760A, homozygous L444P
T1 sequence (P04062 40-536 L483P): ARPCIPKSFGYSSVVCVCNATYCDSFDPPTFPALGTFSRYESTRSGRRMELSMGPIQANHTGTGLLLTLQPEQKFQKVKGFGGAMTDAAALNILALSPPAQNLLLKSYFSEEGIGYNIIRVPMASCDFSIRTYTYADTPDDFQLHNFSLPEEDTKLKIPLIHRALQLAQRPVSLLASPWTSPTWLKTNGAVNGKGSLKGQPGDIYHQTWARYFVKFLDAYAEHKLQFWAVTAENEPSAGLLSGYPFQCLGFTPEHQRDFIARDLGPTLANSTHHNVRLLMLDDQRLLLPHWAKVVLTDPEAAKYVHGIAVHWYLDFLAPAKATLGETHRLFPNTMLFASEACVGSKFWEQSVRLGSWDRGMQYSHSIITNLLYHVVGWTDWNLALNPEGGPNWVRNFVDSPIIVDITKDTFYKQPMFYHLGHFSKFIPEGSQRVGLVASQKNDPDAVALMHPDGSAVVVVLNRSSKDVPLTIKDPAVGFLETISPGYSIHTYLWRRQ
Assay: Enhancement of β-glucocerebrosidase activity measured in Gaucher disease fibroblasts (L444P)
Type: cell-based
Settings: increase in enzyme activity vs non-treated cells, GBA fibroblasts bearing L444P
Experimental: Enhancement of β-Glucocerebrosidase Activity Measured in Gaucher Disease Fibroblasts Materials
Human fibroblasts from a patient with Gaucher disease homozygous for p.L444P mutation (GM08760A) were purchased from Coriell Institute for Medical Research (Camden, N.J., USA).
Fibroblasts were seeded at 5×10^3 cells per well in 96-well cell culture plates (Corning, N.Y., USA) in Dulbecco's Modified Eagle's Media (DMEM) supplemented with 10% of fetal bovine serum (FBS), 1% penicillin/streptomycin (P/S) (Thermo Fisher Scientific, Waltham, Mass., USA) and grown at 37° C., 5% CO2 overnight for cell attachment. Subsequently, cells were incubated in the absence or presence of the compounds at the desired concentration for 4 days. After incubation, cells were washed twice with phosphate-buffered saline (PBS) and enzyme activity assay was performed.
β-glucocerebrosidase activity in intact cultured cells was measured by using 4-methylumbelliferyl-β-D-glucopyranoside substrate (Apollo Scientific, UK). Briefly, cells were incubated with 4-MU-β-D-glucopyranoside in 0.1 M acetate buffer pH=4 at 37° C. for 1 hour. […] The liberated 4-MU was measured on a GloMax Discover plate reader (Promega, Madison, Wis., USA) with and excitation at 340 nm and emission at 460 nm. Enzyme activities were expressed in treated cells as X-fold increase in comparison with non-treated cells (X=1 represents no enhancement).
The capacity of the compounds of the disclosure to produce an increase in enzyme activity in GBA fibroblasts bearing L444P at concentrations between 6 and 50 μM is denoted as follows:
The following compounds listed in Table 2 were purchased (from Enamine, Princeton, Asinex, Vistas-M, and OSSK_541352) and tested in the assay as described above.

[1] = commercially available compounds, 6-50 μM, 4 days
[2] = concentrations between 6 and 50 μM, 4 days incubation

Compound	Activity L444P [1]	Activity L444P [2]
COc1cccc(N2CCN(Cc3nc(N)nc(Nc4ccc(C)cc4)n3)CC2)c1 [6-((4-(3-methoxyphenyl)piperazin-1-yl)methyl)-N2-(p-tolyl)-1,3,5-triazine-2,4-diamine]	C (Increase in comparison with non-treated of 1.2-1.7 fold is shown as C)	–
Cc1ccc(Nc2nc(N)nc(CN3CCN(c4ccccc4)CC3)n2)cc1 [6-((4-phenylpiperazin-1-yl)methyl)-N2-(p-tolyl)-1,3,5-triazine-2,4-diamine]	C (Increase in comparison with non-treated of 1.2-1.7 fold is shown as C)	–
Cc1ccc(Nc2nc(N)nc(CN(C)CCOc3ccc(Cl)cc3)n2)cc1 [6-(((2-(4-chlorophenoxy)ethyl)(methyl)amino)methyl)-N2-(p-tolyl)-1,3,5-triazine-2,4-diamine]	C (Increase in comparison with non-treated of 1.2-1.7 fold is shown as C)	–
Cc1ccc(Nc2nc(N)nc(CN(C)Cc3ccco3)n2)cc1 [6-(((furan-2-ylmethyl)(methyl)amino)methyl)-N2-(p-tolyl)-1,3,5-triazine-2,4-diamine]	C (Increase in comparison with non-treated of 1.2-1.7 fold is shown as C)	–
Nc1nc(CN(Cc2ccc(F)cc2)C2CC2)nc(Nc2ccc(F)cc2)n1 [6-((cyclopropyl(4-fluorobenzyl)amino)methyl)-N2-(4-fluorophenyl)-1,3,5-triazine-2,4-diamine]	C (Increase in comparison with non-treated of 1.2-1.7 fold is shown as C)	–
Cc1ccc(CN(C)Cc2nc(N)nc(Nc3ccccc3C)n2)cc1 [6-((methyl(4-methylbenzyl)amino)methyl)-N2-(o-tolyl)-1,3,5-triazine-2,4-diamine]	C (Increase in comparison with non-treated of 1.2-1.7 fold is shown as C)	–
Cc1ccccc1Nc1nc(N)nc(CN(C)c2ccccc2)n1 [6-((methyl(phenyl)amino)methyl)-N2-(o-tolyl)-1,3,5-triazine-2,4-diamine]	C (Increase in comparison with non-treated of 1.2-1.7 fold is shown as C)	–
COc1ccc(Nc2nc(N)nc(CN(C)c3ccccc3)n2)cc1 [Example 2, N^2-(4-Methoxyphenyl)-6-((methyl(phenyl)amino)methyl)-1,3,5-triazine-2,4-diamine]	–	C (Increase in comparison with non-treated of 1.2-1.7 fold is shown as C)
CN(Cc1ccccc1)Cc1nc(N)nc(Nc2ccc(C#N)cc2)n1 [Example 11, 4-(4-Amino-6-((benzyl(methyl)amino)methyl)-1,3,5-triazin-2-ylamino)benzonitrile]	–	C (Increase in comparison with non-treated of 1.2-1.7 fold is shown as C)
COc1ccccc1Nc1cc(CN(C)Cc2ccccc2)nc(N)n1 [Example 15, 6-((benzyl(methyl)amino)methyl)-N^4-(2-methoxyphenyl)pyrimidine-2,4-diamine]	–	B (Increase in comparison with non-treated of >1.7-2.0 fold is shown as B)
COc1cccc(Nc2cc(CN(C)Cc3ccccc3)nc(N)n2)c1 [Example 17]	–	B (Increase in comparison with non-treated of >1.7-2.0 fold is shown as B)
CN(Cc1ccccc1)Cc1cc(Nc2ccc(Cl)cc2)nc(N)n1 [Example 21, 6-((benzyl(methyl)amino)methyl)-N^4-(4-chlorophenyl)pyrimidine-2,4-diamine]	–	B (Increase in comparison with non-treated of >1.7-2.0 fold is shown as B)
Cc1ccc(Nc2cc(N)nc(CN(C)Cc3ccccc3)n2)cc1 [Example 22, 2-((Benzyl(methyl)amino)methyl)-N^4-(p-tolyl)pyrimidine-4,6-diamine]	–	B (Increase in comparison with non-treated of >1.7-2.0 fold is shown as B)
Cc1ccc(Nc2nc(N)cc(CN(C)Cc3ccccc3)n2)cc1 [Example 23, 6-((benzyl(methyl)amino)methyl)-N^2-p-tolylpyrimidine-2,4-diamine]	–	B (Increase in comparison with non-treated of >1.7-2.0 fold is shown as B)
Cc1ccc(Nc2nc(N)nc(CNC3CCc4ccccc4C3)n2)cc1 (centres unmarked) [Example 27, 6-(((1,2,3,4-Tetrahydronaphthalen-2-yl)amino)methyl)-N-(p-tolyl)-1,3,5-triazine-2,4-diamine]	–	C (Increase in comparison with non-treated of 1.2-1.7 fold is shown as C)
CN(Cc1ccccc1)Cc1cc(Nc2cccc(C#N)c2)nc(N)n1 [Example 29, 3-(2-Amino-6-((benzyl(methyl)amino)methyl)pyrimidin-4-ylamino)benzonitrile]	–	B (Increase in comparison with non-treated of >1.7-2.0 fold is shown as B)
Cc1ccc(Nc2cc(CN(C)Cc3cccc(C)c3)nc(N)n2)cc1 [Example 32, 6-((Methyl(3-methylbenzyl)amino)methyl)-N^4-p-tolylpyrimidine-2,4-diamine]	–	C (Increase in comparison with non-treated of 1.2-1.7 fold is shown as C)
Cc1ccc(CN(C)Cc2cc(Nc3ccc(C)cc3)nc(N)n2)cc1 [Example 34, 6-((Methyl(4-methylbenzyl)amino)methyl)-N^4-p-tolylpyrimidine-2,4-diamine]	–	B (Increase in comparison with non-treated of >1.7-2.0 fold is shown as B)
Cc1ccc(Nc2cc(CN3CCc4ccccc4C3)nc(N)n2)cc1 [Example 35, 6-((3,4-Dihydroisoquinolin-2(1H)-yl)methyl)-N^4-p-tolylpyrimidine-2,4-diamine]	–	B (Increase in comparison with non-treated of >1.7-2.0 fold is shown as B)
COc1cccc(Nc2cc(CN(C)Cc3cccc(C)c3)nc(N)n2)c1 [Example 38]	–	B (Increase in comparison with non-treated of >1.7-2.0 fold is shown as B)
Cc1cccc(Nc2cc(CN(C)Cc3cccc(C#N)c3)nc(N)n2)c1 [Example 39, 3-((((2-Amino-6-(m-tolylamino)pyrimidin-4-yl)methyl)(methyl)amino)methyl) benzonitrile]	–	C (Increase in comparison with non-treated of 1.2-1.7 fold is shown as C)
CCc1ccc(CN(C)Cc2cc(Nc3cccc(OC)c3)nc(N)n2)cc1 [Example 40, 6-(((4-Ethylbenzyl)(methyl)amino)methyl)-N^4-(3-methoxyphenyl)pyrimidine-2,4-diamine]	–	B (Increase in comparison with non-treated of >1.7-2.0 fold is shown as B)
COCCN(Cc1ccccc1)Cc1cc(Nc2cccc(OC)c2)nc(N)n1 [Example 49, 6-((Benzyl(2-methoxyethyl)amino)methyl)-N^4-(3-methoxyphenyl)pyrimidine-2,4-diamine]	–	C (Increase in comparison with non-treated of 1.2-1.7 fold is shown as C)
COc1cccc(Nc2cc(CN(C)c3cccc(OC)c3)nc(N)n2)c1 [Example 51]	–	C (Increase in comparison with non-treated of 1.2-1.7 fold is shown as C)
COc1cccc(CN(C)Cc2cc(Nc3ccc(C)cc3)nc(N)n2)c1 [Example 53, 6-(((3-Methoxybenzyl)(methyl)amino)methyl)-N^4-p-tolylpyrimidine-2,4-diamine]	–	C (Increase in comparison with non-treated of 1.2-1.7 fold is shown as C)
Cc1ccc(Nc2cc(CN(C)Cc3cccc(C#N)c3)nc(N)n2)cc1 [Example 55, 3-((((2-Amino-6-(p-tolylamino)pyrimidin-4-yl)methyl)(methyl)amino)methyl)benzonitrile]	–	B (Increase in comparison with non-treated of >1.7-2.0 fold is shown as B)
Cc1ccc(Nc2cc(CN(C)Cc3ccc(C#N)cc3)nc(N)n2)cc1 [Example 57, 4-((((2-Amino-6-(p-tolylamino)pyrimidin-4-yl)methyl)(methyl)amino)methyl)benzonitrile]	–	C (Increase in comparison with non-treated of 1.2-1.7 fold is shown as C)
Cc1ccc(Nc2cc(CN(C)Cc3ccncc3)nc(N)n2)cc1 [Example 60, 6-((Methyl(pyridin-4-ylmethyl)amino)methyl)-N^4-p-tolylpyrimidine-2,4-diamine]	–	C (Increase in comparison with non-treated of 1.2-1.7 fold is shown as C)
Cc1ccc(Nc2cc(CN(C)Cc3cccnc3)nc(N)n2)cc1 [Example 61, 6-((Methyl(pyridin-3-ylmethyl)amino)methyl)-N^4-p-tolylpyrimidine-2,4-diamine]	–	C (Increase in comparison with non-treated of 1.2-1.7 fold is shown as C)
